Source: US20240318160A1 (Wisconsin Alumni Research Foundation, priority 2023, published 2024)

How the values were obtained:
Assay type in all cases: biochemical
[1] = target: Arabidopsis thaliana AtPAL1 variant F144H (AtPAL1^F144H), SEQ ID NO: 261 (Arabidopsis thaliana, UniProt P35510, F144H); experiment: TAL and PAL enzyme kinetics; details: TAL assay (L-Tyr), pH 8.5, 30° C.
Description: (§1) A mixture containing 100 mM Tris-HCl (pH 8.5), 1% glycerol, and purified enzyme in a total volume of 50 μl was preincubated for 3 min at 30° C. […] The reactions were terminated by addition of 6N acetic acid (10 μl).
(§2) The kinetic parameters of the recombinant enzymes were determined using HPLC. Reaction mixtures containing 100 mM Tris-HCl (pH 8.5), 1% glycerol, and purified enzyme (0.15 μg for PAL assay and 1 μg for TAL assay) in a 50 μl total volume were preincubated for 3 min at 30° C. […] After 10 min and 20 min incubations for PAL and TAL assay, respectively, at 30° C., the reaction was terminated by addition of 6N acetic acid (10 μl). […] The products were quantified using calibration curves generated using authentic standards. Non-linear hyperbolic regression analyses were conducted using the Excel Solver tool to calculate Km and Vmax values.

[2] = test system: Ecdeiocolea monostachya EmoPAL variant F134H (EmoPAL^F134H); experiment: TAL and PAL enzyme kinetics; details: TAL assay (L-Tyr), pH 8.5, 30° C.
Description: as §1, §2

[3] = test system: Ecdeiocolea monostachya EmoPTAL variant H127F (EmoPTAL^H127F); experiment: TAL and PAL enzyme kinetics; details: TAL assay (L-Tyr), pH 8.5, 30° C.
Description: as §1, §2

[4] = test system: Joinvillea ascendens JaPTAL, wild type, SEQ ID NO: 27; experiment: TAL and PAL enzyme kinetics; details: TAL assay (L-Tyr), pH 8.5, 30° C.
Description: as §1, §2

[5] = test system: Sorghum bicolor SbPAL variant F135H (SbPAL^F135H); experiment: TAL and PAL enzyme kinetics; details: TAL assay (L-Tyr), pH 8.5, 30° C.
Description: as §1, §2

[6] = test system: Streptochaeta angustifolia SaPTAL-a variant H118F (SaPTAL-a^H118F); experiment: TAL and PAL enzyme kinetics; details: TAL assay (L-Tyr), pH 8.5, 30° C.
Description: as §1, §2

[7] = test system: Streptochaeta angustifolia SaPTAL-b variant H126F (SaPTAL-b^H126F); experiment: TAL and PAL enzyme kinetics; details: TAL assay (L-Tyr), pH 8.5, 30° C.
Description: as §1, §2

[8] = test system: Joinvillea ascendens JaPAL^F140H_MUT8 variant A448S; experiment: TAL and PAL enzyme kinetics; details: TAL assay (L-Tyr), pH 8.5, 30° C.
Description: (§3) To determine which of the 8 circle residues are essential in the conversion of PAL enzymes to PTAL enzymes (FIG. 3C), we mutated, one by one, each one of these 8 residues back to the PAL type in JaPAL^F140H_MUT8 and determined their effects on catalytic efficiency.
as §1, §2

[9] = test system: Joinvillea ascendens JaPAL^F140H_MUT8 variant G121A; experiment: TAL and PAL enzyme kinetics; details: TAL assay (L-Tyr), pH 8.5, 30° C.
Description: as §3, §1, §2

[10] = test system: Joinvillea ascendens JaPAL^F140H_MUT8 variant I102V; experiment: TAL and PAL enzyme kinetics; details: TAL assay (L-Tyr), pH 8.5, 30° C.
Description: as §3, §1, §2

[11] = test system: Joinvillea ascendens JaPAL^F140H_MUT8 variant I122S (in Table 3; I112S in text); experiment: TAL and PAL enzyme kinetics; details: TAL assay (L-Tyr), pH 8.5, 30° C.
Description: as §3, §1, §2

[12] = test system: Joinvillea ascendens JaPAL^F140H_MUT8 variant L138I; experiment: TAL and PAL enzyme kinetics; details: TAL assay (L-Tyr), pH 8.5, 30° C.
Description: as §3, §1, §2

[13] = test system: Joinvillea ascendens JaPAL^F140H_MUT8 variant S267A; experiment: TAL and PAL enzyme kinetics; details: TAL assay (L-Tyr), pH 8.5, 30° C.
Description: as §3, §1, §2

[14] = test system: Joinvillea ascendens JaPAL^F140H_MUT8 variant T444P; experiment: TAL and PAL enzyme kinetics; details: TAL assay (L-Tyr), pH 8.5, 30° C.
Description: as §3, §1, §2

[15] = test system: Joinvillea ascendens JaPAL^F140H_MUT8 variant V500I; experiment: TAL and PAL enzyme kinetics; details: TAL assay (L-Tyr), pH 8.5, 30° C.
Description: as §3, §1, §2

[16] = test system: Joinvillea ascendens JaPAL variant F140H/S112I (JaPAL^F140H_S112I), SEQ ID NO: 145; experiment: TAL and PAL enzyme kinetics; details: TAL assay (L-Tyr), pH 8.5, 30° C.
Description: To test this hypothesis further, the reciprocal S112I mutation was introduced into the JaPAL^F140H single mutant to generate the JaPAL^F140H_S112I double mutant. For comparison, a single mutant in which the residue corresponding to Ser112 was converted to Ile (i.e., JaPAL^S112I) was generated as well.
as §1, §2

[17] = test system: wild-type PTAL enzymes (SbPTAL, BdPTAL, SaPTAL-a, SaPTAL-b, EmoPTAL, JaPTAL); experiment: TAL enzyme kinetics, group of enzymes; details: TAL activity (Tyr), range over PTAL enzymes; read-out: apparent Km
Description: as §2

[18] = test system: PTAL^H140F mutants (SbPTAL^H123F, BdPTAL^H123F, SaPTAL-a^H118F, SaPTAL-b^H126F, EmoPTAL^H127F, JaPTAL^H125F); experiment: TAL and PAL enzyme kinetics, group of enzymes; details: TAL activity, range over mutants
Text: To experimentally test the role of His 140 in the acquisition of TAL activity, we next conducted site-directed mutagenesis on the PAL and PTAL enzymes of grasses and non-grass graminids characterized above and analyzed their effects on TAL activity. For the PAL enzymes, the residue corresponding to Phe 140 was converted to His to generate JaPAL^F140H EmoPAL^F134H, BdPAL^F137H, and SbPAL^F135H. […] For the PTAL enzymes, the residue corresponding to His 140 was converted to Phe to generate SbPTAL^H123F, BdPTAL^H123F, SaPTAL-a^H118F, SaPTAL-b^H126F, EmoPTAL^H127F, and JaPTAL^H125F. […] Thus, unlike in the bacterial TAL enzyme (Watts et al., 2006), other residues besides the His 140 are likely important for the acquisition of strong TAL activity in the PTAL enzymes of grasses and closely-related non-grass graminids.
The kinetic parameters of the recombinant enzymes were determined using HPLC. Reaction mixtures containing 100 mM Tris-HCl (pH 8.5), 1% glycerol, and purified enzyme (0.15 μg for PAL assay and 1 μg for TAL assay) in a 50 μl total volume were preincubated for 3 min at 30° C. PAL and TAL reactions were started by addition of 50 μl substrate solution prepared with 0-4 mM L-Phe and 0-2 mM L-Tyr. After 10 min and 20 min incubations for PAL and TAL assay, respectively, at 30° C., the reaction was terminated by addition of 6N acetic acid (10 μl). […] The products were quantified using calibration curves generated using authentic standards. Non-linear hyperbolic regression analyses were conducted using the Excel Solver tool to calculate Km and Vmax values.

[19] = test system: PAL^F140H mutants (JaPAL^F140H, EmoPAL^F134H, BdPAL^F137H, SbPAL^F135H); experiment: TAL and PAL enzyme kinetics, group of enzymes; details: TAL activity, range over mutants
Description: as §2

Arabidopsis thaliana AtPAL1 variant F144H (AtPAL1^F144H), SEQ ID NO: 261, sequence (P35510 whole entry F144H): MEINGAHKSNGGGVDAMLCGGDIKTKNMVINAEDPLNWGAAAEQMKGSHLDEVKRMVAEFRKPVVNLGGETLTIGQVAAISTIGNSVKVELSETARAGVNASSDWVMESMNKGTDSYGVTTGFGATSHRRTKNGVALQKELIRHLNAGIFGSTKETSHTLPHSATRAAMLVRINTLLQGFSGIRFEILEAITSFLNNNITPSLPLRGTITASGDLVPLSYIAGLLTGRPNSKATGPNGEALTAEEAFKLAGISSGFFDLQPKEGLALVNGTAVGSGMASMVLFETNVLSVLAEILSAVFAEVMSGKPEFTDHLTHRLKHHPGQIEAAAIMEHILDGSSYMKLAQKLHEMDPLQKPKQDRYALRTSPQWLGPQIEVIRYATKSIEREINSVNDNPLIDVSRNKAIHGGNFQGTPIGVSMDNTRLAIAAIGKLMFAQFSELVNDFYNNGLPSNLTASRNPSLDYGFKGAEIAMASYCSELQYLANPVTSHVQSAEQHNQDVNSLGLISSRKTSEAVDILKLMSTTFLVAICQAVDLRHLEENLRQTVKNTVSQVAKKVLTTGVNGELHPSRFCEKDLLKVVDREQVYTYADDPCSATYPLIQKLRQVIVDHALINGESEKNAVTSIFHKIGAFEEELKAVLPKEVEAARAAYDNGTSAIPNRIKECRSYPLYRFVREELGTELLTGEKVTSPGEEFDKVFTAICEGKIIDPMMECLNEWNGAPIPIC

For `N[C@@H](Cc1ccc(O)cc1)C(=O)O` [L-Tyr, tyrosine], the kcat [1] was 0.01 ± 0.00 s⁻¹, the Km [2] was 450 ± 14.2 µM and the Km [3] was 614 ± 18.1 µM. For the same compound, the Km [4] was 11 ± 0.4 µM, the Km [5] was 413 ± 6.5 µM and the Km [6] was 531 ± 13.2 µM. The Km [7] was 724 ± 54.8 µM, the Km [8] was 23.3 ± 1 µM and the Km [9] was 12.6 ± 0.6 µM. The Km [10] was 24.5 ± 1.4 µM, the Km [11] was 282 ± 29 µM and the Km [12] was 18.3 ± 0.6 µM. For the same compound, the Km [13] was 43.1 ± 1.5 µM, the Km [14] was 25.3 ± 2.4 µM and the Km [15] was 25.1 ± 3.2 µM. It also gave a Km [16] of 17.2 ± 0.7 µM, a Km [17] of 11 to 19 µM and a Km [18] of 531 to 765 µM. For the same compound, the Km [19] was 222 to 450 µM.
